This passage reports GI50 results from patent US20250388605A1, “HETEROBIFUNCTIONAL COMPOUNDS AND METHODS OF TREATING DISEASE” (Halda Therapeutics OpCo, Inc., priority 2022, published 2025).

Each structure is given as a SMILES string.

Experiment [1] concerns T-Rex 293 cell line SC3 cells having increased expression of androgen receptor protein due to exposure to doxycycline. In words: Cellular growth inhibition, T-Rex 293 SC3 cells with doxycycline (increased androgen receptor expression), CellTiter-Glo. The format is cell-based. The following applies: T-Rex 293 SC3 cells with 10 ng/mL doxycycline (increased androgen receptor expression), 72 hours, CellTiter-Glo 2.0. As for the experimental part: (§1) The following types of cells were prepared for this experiment: (i) a T-Rex 293 cell line having increased expression of androgen receptor protein due to exposure to doxycycline and (ii) a T-Rex 293 cell line lacking increased expression of androgen receptor protein. Ability of the test compounds to inhibit proliferation of the foregoing cell types was evaluated according to the procedures set forth below.
(§2) The doxycycline-inducible androgen receptor protein expressing cell line was established using the following protocol: T-Rex 293 cells were purchased from Invitrogen (Cat #R71007) and transfected using Lipofectamine 2000 with the wild-type androgen receptor protein sequence cloned into the pcDNA4/TO vector. Transfected cells were selected using 400 μg/mL Zeocin (Invitrogen Cat #R25001). Following selection, single clones were raised and maintained in Dulbecco's Modified Eagle Medium (DMEM) supplemented with 10% w/w Tetracycline-free fetal bovine serum (FBS) and 250 μg/mL Zeocin. Clones were analyzed for expression of androgen receptor protein in the presence and absence of 10 ng/mL doxycycline (Sigma Cat #D9891), and a single doxycycline-inducible clone (hereinafter “SC3”) was selected for use in downstream assays.
(§3) The SC3 cells were seeded on poly-D-lysine coated, black clear-bottom 384-well plates at 2500/well, in 25 μL Phenol Red Free Dulbecco's Modified Eagle Medium (DMEM) supplemented with 10% w/w charcoal-dextran treated fetal bovine serum (FBS) and 1% w/w pen-strep, with or without 10 ng/mL doxycycline. Pen-Strep is a commercially available mixture of penicillin G and streptomycin, which is used in mammalian cell culture media to prevent bacterial contamination. Phenol Red Free Dulbecco's Modified Eagle Medium (DMEM) supplemented with 10% w/w charcoal-dextran treated fetal bovine serum (FBS) and 1% w/w pen-strep, with or without 10 ng/mL doxycycline is herein referred to as Treatment Medium. Following seeding of cells in the plates, the plates were spun at 300×g for 30 seconds, then equilibrated to room temperature for 30 minutes, and then deposited in a humidified tissue culture incubator maintained at 37° C. with 5% CO2.
(§4) At 24 hours after seeding of the cells, dilutions of test compound were prepared in DMSO and dissolved in Treatment Medium, to achieve a final DMSO concentration of 0.5% w/w, thereby providing the Test Compound Solution. A 25 μL aliquot of the Test Compound Solution was added to cells in the well plates. An equal volume of a solution containing DMSO and Treatment Medium was used as a negative control. Following treatment of cells with Test Compound Solution or said equal volume of a solution containing DMSO and Treatment Medium, the plates were spun at 300×g for 30 seconds, and then left in an incubator for 72 hours.
(§5) At the end of the treatment duration, cell viability was quantified with CellTiter-Glo 2.0 reagent (Promega Cat #G9243). For this purpose, plates were equilibrated to room temperature for 30 minutes, and then 25 μL of CellTiter-Glo 2.0 reagent was added to cells in the plate wells. Plates were then agitated on a shaker for two minutes at 500 rpm and subsequently incubated at room temperature for 10 minutes. Following incubation, the plates were spun at 3000×g for 30 seconds, then sealed with an optical adhesive cover, and luminescence readings were measured with an EnVision Plate Reader.
(§6) Data was normalized using zero luminescence for baseline. A four-parameter non-linear regression curve fit was applied to dose-response data in GraphPad Prism data analysis software to determine the half-maximal growth inhibitory concentration (GI50) for each test compound.

The test system of experiment [2] is T-Rex 293 cell line SC3 cells lacking increased expression of androgen receptor protein. In words: Cellular growth inhibition, T-Rex 293 SC3 cells without doxycycline (no increased androgen receptor expression), CellTiter-Glo. The class given is cell-based. The following applies: T-Rex 293 SC3 cells not exposed to doxycycline (no increased androgen receptor expression), 72 hours. How it is done: as §1, §2, §3, §4, §5, §6

A further experiment relates to VCaP cells. Nature of the experiment: Cellular growth inhibition assay for VCaP cells, CellTiter-Glo. The class given is cell-based, human. Conditions: 72 hours. As for the experimental part: VCaP cells were purchased from American Type Cell Culture (ATCC Cat #CRL2876) and then seeded on poly-D-lysine coated, black clear-bottom 384-well plates at 5000/well in 25 μL Dulbecco's Modified Eagle Medium (DMEM) supplemented with 10% w/w Fetal bovine serum (FBS) and 1% w/w Pen-Strep. Pen-Strep is a commercially available mixture of penicillin G and streptomycin, which is used in mammalian cell culture media to prevent bacterial contamination. Dulbecco's Modified Eagle Medium (DMEM) supplemented with 10% w/w fetal bovine serum (FBS) and 1% w/w Pen-Strep is herein referred to as Treatment Medium. Following seeding of cells in the plates, the plates were spun at 300×g for 30 seconds, then equilibrated to room temperature for 30 minutes, and then deposited in a humidified tissue culture incubator maintained at 37° C. with 5% CO2.
as §4, §5, §6

As to `Cn1cc(-c2cc(NS(=O)(=O)C3CC3)ccc2Oc2cccc(CCOC3CCN(c4ncc(C(=O)N[C@H]5C(C)(C)[C@H](Oc6ccc(C#N)c(Cl)c6)C5(C)C)cn4)CC3)c2F)c2cc[nH]c2c1=O` [Compound I-136], the GI50 (in experiment [1]; in experiment [2]; in the experiment on VCaP cells) was less than 500 nM throughout.
With `CCS(=O)(=O)Nc1ccc(Oc2ccc(OCCOC3CCN(c4ncc(C(=O)N[C@H]5C(C)(C)[C@H](Oc6ccc(C#N)c(Cl)c6)C5(C)C)cn4)CC3)cc2)c(-c2cn(C)c(=O)c3[nH]ccc23)c1` [Compound I-139], the GI50 (in experiment [1]; in experiment [2]; in the experiment with VCaP cells) was less than 500 nM in each case.
With `Cn1cc(-c2cc(NS(=O)(=O)C3CC3)ccc2Oc2cccc(CCOC3CCN(c4ncc(C(=O)N[C@H]5C(C)(C)[C@H](Oc6ccc(C#N)c(Cl)c6)C5(C)C)cn4)CC3)c2)c2cc[nH]c2c1=O` [Compound I-145], the GI50 is less than 500 nM in experiment [1], greater than 3000 nM in experiment [2] and 1500 to 3000 nM with VCaP cells.
As for `CCS(=O)(=O)Nc1ccc(Oc2cc(OCCOC3CCN(c4ncc(C(=O)N[C@H]5C(C)(C)[C@H](Oc6ccc(C#N)c(Cl)c6)C5(C)C)cn4)CC3)ccc2F)c(-c2cn(C)c(=O)c3[nH]ccc23)c1` [Compound I-150], the results for the concentration for 50% growth inhibition (GI50) (in experiment [1]; in experiment [2]; with VCaP cells (Homo sapiens)) were less than 500 nM, greater than 3000 nM and less than 500 nM, respectively.
Consider `CCS(=O)(=O)Nc1ccc(Oc2ccc(CCCOC3CCN(c4ncc(C(=O)N[C@H]5C(C)(C)[C@H](Oc6ccc(C#N)c(Cl)c6)C5(C)C)cn4)CC3)cc2)c(-c2cn(C)c(=O)c3[nH]ccc23)c1` [Compound I-152], for which the GI50 (in experiment [1]; in experiment [2]; in the experiment on VCaP cells) was less than 500 nM in each case.
With `CCS(=O)(=O)Nc1ccc(Oc2cccc(CCCOC3CCN(c4ncc(C(=O)N[C@H]5C(C)(C)[C@H](Oc6ccc(C#N)c(Cl)c6)C5(C)C)cn4)CC3)c2F)c(-c2cn(C)c(=O)c3[nH]ccc23)c1` [Compound I-154], the GI50 (in experiment [1]; in experiment [2]; with VCaP cells (Homo sapiens)) was less than 500 nM each time.
As to `CCS(=O)(=O)Nc1ccc(Oc2cccc(OCCCC3CCN(c4ncc(C(=O)N[C@H]5C(C)(C)[C@H](Oc6ccc(C#N)c(Cl)c6)C5(C)C)cn4)CC3)c2F)c(-c2cn(C)c(=O)c3[nH]ccc23)c1` [Compound I-155], the GI50 in experiment [1] is less than 500 nM; in experiment [2] it was greater than 3000 nM; in the experiment on VCaP cells (Homo sapiens), less than 500 nM.
With `CCS(=O)(=O)Cc1ccc(Oc2cccc(CCOC3CCN(c4ncc(C(=O)N[C@H]5C(C)(C)[C@H](Oc6ccc(C#N)c(Cl)c6)C5(C)C)cn4)CC3)c2)c(-c2cn(C)c(=O)c3[nH]ccc23)c1` [Compound I-159], the GI50 (in experiment [1]; in experiment [2]; in the experiment on VCaP cells) was less than 500 nM throughout.
On to `CCS(=O)(=O)Cc1ccc(Oc2cccc(CCOC3CCN(c4ncc(C(=O)N[C@H]5C(C)(C)[C@H](Oc6ccc(C#N)c(Cl)c6)C5(C)C)cn4)CC3)c2F)c(-c2cn(C)c(=O)c3[nH]ccc23)c1` [Compound I-160], for which the 50% growth inhibitory concentration (GI50) (in experiment [1]; in experiment [2]; with VCaP cells) was less than 500 nM each time.
For `CCS(=O)(=O)Nc1cc(F)c(Oc2cccc(OCCOC3CCN(c4ncc(C(=O)N[C@H]5C(C)(C)[C@H](Oc6ccc(C#N)c(Cl)c6)C5(C)C)cn4)CC3)c2)c(-c2cn(C)c(=O)c3[nH]ccc23)c1` [Compound I-161], the GI50 was less than 500 nM in experiment [1], greater than 3000 nM in experiment [2] and less than 500 nM in the experiment on VCaP cells (Homo sapiens).
Turning to `CCS(=O)(=O)Nc1ccc(Oc2cccc(OCCOC3CCN(c4ccc(C(=O)N[C@H]5C(C)(C)[C@H](Oc6ccc(C#N)c(Cl)c6)C5(C)C)nn4)CC3)c2F)c(-c2cn(C)c(=O)c3[nH]ccc23)c1` [Compound I-162], the GI50 is less than 500 nM in experiment [1], greater than 3000 nM in experiment [2] and less than 500 nM in the experiment on VCaP cells (Homo sapiens).
In the case of `Cn1cc(-c2cc(NS(=O)(=O)C(F)(F)F)ccc2Oc2cccc(OCCOC3CCN(c4ncc(C(=O)N[C@H]5C(C)(C)[C@H](Oc6ccc(C#N)c(Cl)c6)C5(C)C)cn4)CC3)c2F)c2cc[nH]c2c1=O` [Compound I-163, N-[3-(3-chloro-4-cyano-phenoxy)-2,2,4,4-tetramethyl-cyclobutyl]-2-[4-[2-[2-fluoro-3-[2-(6-methyl-7-oxo-1H-pyrrolo[2,3-c]pyridin-4-yl)-4-(trifluoromethylsulfonylamino)phenoxy]phenoxy]ethoxy]-1-piperidyl]pyrimidine-5-carboxamide], the figures for the GI50 (in experiment [1]; in experiment [2]; in the experiment on VCaP cells (Homo sapiens)) were less than 500 nM, greater than 3000 nM and 500 to 1500 nM, respectively.
Take `CCS(=O)(=O)Cc1ccc(Oc2cccc(OCCOC3CCN(c4ccc(C(=O)N[C@H]5C(C)(C)[C@H](Oc6ccc(C#N)c(Cl)c6)C5(C)C)cn4)CC3)c2F)c(-c2cn(C)c(=O)c3[nH]ccc23)c1` [Compound I-166]: the GI50 (in experiment [1]; in experiment [2]; with VCaP cells (Homo sapiens)) was less than 500 nM in each case.
In the case of `CCS(=O)(=O)Cc1ccc(Oc2cccc(OCCOC3CCN(c4ccc(C(=O)N[C@H]5C(C)(C)[C@H](Oc6ccc(C#N)c(Cl)c6)C5(C)C)nn4)CC3)c2F)c(-c2cn(C)c(=O)c3[nH]ccc23)c1` [Compound I-167], the GI50 in experiment [1] was less than 500 nM; in experiment [2], greater than 3000 nM; in the experiment on VCaP cells (Homo sapiens) it was less than 500 nM.
Consider `CCS(=O)(=O)Cc1ccc(Oc2cccc(OCCCC3CCN(c4ncc(C(=O)N[C@H]5C(C)(C)[C@H](Oc6ccc(C#N)c(Cl)c6)C5(C)C)cn4)CC3)c2F)c(-c2cn(C)c(=O)c3[nH]ccc23)c1` [Compound I-168], for which the GI50 in experiment [1] was less than 500 nM; in experiment [2], greater than 3000 nM; in the experiment with VCaP cells (Homo sapiens) it was less than 500 nM.
With `CCS(=O)(=O)c1ccc(Oc2cccc(OCCOC3CCN(c4ccc(C(=O)N[C@H]5C(C)(C)[C@H](Oc6ccc(C#N)c(Cl)c6)C5(C)C)nn4)CC3)c2F)c(-c2cn(C)c(=O)c3[nH]ccc23)c1` [Compound I-169], the GI50 (in experiment [1]; in experiment [2]; in the experiment on VCaP cells (Homo sapiens)) was less than 500 nM each time.
Regarding `CCS(=O)(=O)Nc1ccc(Oc2cccc(N(C)C3CC(C4CCN(c5ncc(C(=O)N[C@H]6C(C)(C)[C@H](Oc7ccc(C#N)c(Cl)c7)C6(C)C)cn5)CC4)C3)c2)c(-c2cn(C)c(=O)c3[nH]ccc23)c1` (stereo partly drawn) [Compound I-172], the results for the GI50 (in experiment [1]; in experiment [2]; with VCaP cells) were less than 500 nM, greater than 3000 nM and greater than 3000 nM, respectively.
For the compound `CCS(=O)(=O)Nc1ccc(Oc2cccc(NCCN(C)C3CCN(c4ncc(C(=O)N[C@H]5C(C)(C)[C@H](Oc6ccc(C#N)c(Cl)c6)C5(C)C)cn4)CC3)c2)c(-c2cn(C)c(=O)c3[nH]ccc23)c1` [Compound I-173], the figures for the GI50 (in experiment [1]; in experiment [2]; with VCaP cells (Homo sapiens)) were 500 to 1500 nM, greater than 3000 nM and less than 500 nM, respectively.
With `CCS(=O)(=O)Cc1ccc(Oc2cccc(N3CC(N4CCN(c5ncc(C(=O)N[C@H]6C(C)(C)[C@H](Oc7ccc(C#N)c(Cl)c7)C6(C)C)cn5)CC4)C3)c2F)c(-c2cn(C)c(=O)c3[nH]ccc23)c1` [Compound I-174], the GI50 in experiment [1] was less than 500 nM; in experiment [2] it was greater than 3000 nM; in the experiment with VCaP cells (Homo sapiens), less than 500 nM.
